# Tests used:
# [1] = tested on: Eker rats carrying Tsc2 germline mutation; details: early-life exposure during development of the uterus, cited from earlier work
# HuLM cells = assay: Cell proliferation, trypan blue exclusion assay, METTL3 inhibition; type: cell-based, human; details: 1-10 μM, 24 hours, vs DMSO vehicle, FIG. 9
# Procedure: The HuLM cell line was cultured and maintained in phenol red-free, Dulbecco's Modified Eagle Medium: Nutrient Mixture F-12. The cells were grown at 37° C. and 5% CO2 in an incubator with saturating humidity.
# Cell proliferation was measured using trypan blue exclusion assay. The cells were cultured in the absence or presence of the METTL3 inhibitor STM2457 at a dose range from 1-10 μM for 24 hours. DMSO was used as a vehicle control. Cells were trypsinized, collected by centrifuge, and resuspended in serum-free medium. Equal volumes of 0.4% trypan blue and cell suspension were mixed and cells were counted using a hemacytometer. This assay was performed three times in triplicate.
compound,measurement,setting,value
CC/C(=C(/CC)c1ccc(O)cc1)c1ccc(O)cc1 [diethylstilbestrol],tumor multiplicity and size,[1]; genetically predisposed animals,increases
same,tumor-suppressor-gene penetrance,[1]; spontaneous frequency 65%,> 90%
STM2457,cell proliferation of UF cells (relative cell numbers),HuLM cells,decreases the cell proliferation
